Measurements published in patent publication US5232684A, “Labelled resiniferatoxin, compositions thereof, and methods for using the same” (priority 1990, dated 1993).

What was measured:
[1] = tested on: capsaicin receptor (porcine DRG subcellular fractions); assay type: binding, pig
Procedure: Subcellular fractions are prepared by a modification of the method of Bastiaensen et al. (Bastiaensen, E., Miserez, B. and De Potter, W., Subcellular fractionation of bovine ganglion stellatum: co-storage of noradrenaline, Met-enkephalin and neuropeptide Y in large `dense-cored` vesicles, Brain Res., 442 (1988) 124-130. ) Briefly: DRG are dissected free from capsule, cut into small pieces with scissors, and then homogenized with a teflon pestle (20 strokes) in ice-cold 0.25 M sucrose/ 20 mM Tris-Cl (pH 7.4) buffer. The homogenate is filtered over surgical gauze; it is then centrifuged for 10 min at 2000 gmax, giving a pellet P1, and again at 10 000 gmax for 15 min giving a pellet P2. The P1 and P2 pellets are saved as nuclear and mitochondrial fractions for binding studies. […]
(§1) The binding assays are carried out in a volume of 250 ul, containing assay buffer (same as the disrupting buffer but omitting DTT and EGTA and including 0.75 mM CaCl2), 26-30 ug of membrane protein and 0.25 mg/ml bovine serum albumin. […] An aliquot of 50 ul of the mixture is removed to determine total radioactivity. The filters are washed with 100 ml of ice-cold 20 mM Tris-Cl, pH 7 4, containing 0.1 mg/ml bovine serum albumin, and the bound radioactivity is determined by scintillation counting. Non-specific binding is determined in the presence of 100-1000 nM non-radioactive RTX. […]

[2] = tested on: rat cerebellum; assay: [^3H]RTX binding to rat cerebellum
[3] = target: T1, capsaicin receptor (chicken DRG) (Gallus gallus, UniProt Q8QFN9); assay: [^3H]RTX binding to chicken DRG membranes
T1 construct: homotetramer
T1 sequence (Q8QFN9 1-843): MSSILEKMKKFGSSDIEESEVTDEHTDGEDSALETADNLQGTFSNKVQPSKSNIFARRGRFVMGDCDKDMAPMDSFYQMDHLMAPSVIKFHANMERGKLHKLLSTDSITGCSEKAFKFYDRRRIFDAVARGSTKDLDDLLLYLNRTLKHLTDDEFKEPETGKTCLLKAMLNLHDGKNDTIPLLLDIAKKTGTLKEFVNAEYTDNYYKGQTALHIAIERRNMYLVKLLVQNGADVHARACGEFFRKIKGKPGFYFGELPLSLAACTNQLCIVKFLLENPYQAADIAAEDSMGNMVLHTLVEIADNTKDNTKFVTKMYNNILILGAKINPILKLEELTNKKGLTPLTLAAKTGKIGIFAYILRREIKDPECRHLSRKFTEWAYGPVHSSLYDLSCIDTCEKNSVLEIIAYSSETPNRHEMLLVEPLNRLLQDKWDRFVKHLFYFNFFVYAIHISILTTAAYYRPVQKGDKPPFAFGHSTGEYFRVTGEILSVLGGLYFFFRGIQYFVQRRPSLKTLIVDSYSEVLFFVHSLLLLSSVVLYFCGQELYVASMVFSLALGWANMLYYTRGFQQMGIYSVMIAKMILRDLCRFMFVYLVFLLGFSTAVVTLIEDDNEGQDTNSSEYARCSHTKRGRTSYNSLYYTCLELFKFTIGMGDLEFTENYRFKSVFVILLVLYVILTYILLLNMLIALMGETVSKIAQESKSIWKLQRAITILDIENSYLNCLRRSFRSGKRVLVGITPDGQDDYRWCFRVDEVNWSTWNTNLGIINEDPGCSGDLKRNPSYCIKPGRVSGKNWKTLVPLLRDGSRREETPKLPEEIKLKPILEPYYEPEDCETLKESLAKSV

[4] = tested on: substantia nigra; assay: [^3H]RTX binding to rat substantia nigra
Procedure: Membrane preparations are obtained from the DRG and Gasser ganglia of female Sprague-Dawley rats (250-300 g); animals are sacrificed by decapitation under ether anesthesia, the ganglia removed and collected into ice-cold disrupting buffer (5 mM KCl, 5.8 mM NaCl, 2 mM MgCl2, 12 mM glucose, 137 mM sucrose, 10 mM HEPES, 5 mM DTT, 2 mM EGTA, pH 7.4). After homogenization with the aid of a Polytron tissue homogenizer, samples are filtered over surgical gauze and then washed twice with the same buffer and stored at -70° C. […]
as §1

[5] = target: T2, capsaicin receptor (dorsal horn from pig spinal cord) (Sus scrofa, UniProt F1RLJ0); assay: Binding to membrane preparations from dissected dorsal horn of pig spinal cord
T2 construct: membrane preparations from dissected dorsal horn from pig spinal cord; from tissue; host or cells: dissected dorsal horn of pig spinal cord
T2 sequence (F1RLJ0 1-841): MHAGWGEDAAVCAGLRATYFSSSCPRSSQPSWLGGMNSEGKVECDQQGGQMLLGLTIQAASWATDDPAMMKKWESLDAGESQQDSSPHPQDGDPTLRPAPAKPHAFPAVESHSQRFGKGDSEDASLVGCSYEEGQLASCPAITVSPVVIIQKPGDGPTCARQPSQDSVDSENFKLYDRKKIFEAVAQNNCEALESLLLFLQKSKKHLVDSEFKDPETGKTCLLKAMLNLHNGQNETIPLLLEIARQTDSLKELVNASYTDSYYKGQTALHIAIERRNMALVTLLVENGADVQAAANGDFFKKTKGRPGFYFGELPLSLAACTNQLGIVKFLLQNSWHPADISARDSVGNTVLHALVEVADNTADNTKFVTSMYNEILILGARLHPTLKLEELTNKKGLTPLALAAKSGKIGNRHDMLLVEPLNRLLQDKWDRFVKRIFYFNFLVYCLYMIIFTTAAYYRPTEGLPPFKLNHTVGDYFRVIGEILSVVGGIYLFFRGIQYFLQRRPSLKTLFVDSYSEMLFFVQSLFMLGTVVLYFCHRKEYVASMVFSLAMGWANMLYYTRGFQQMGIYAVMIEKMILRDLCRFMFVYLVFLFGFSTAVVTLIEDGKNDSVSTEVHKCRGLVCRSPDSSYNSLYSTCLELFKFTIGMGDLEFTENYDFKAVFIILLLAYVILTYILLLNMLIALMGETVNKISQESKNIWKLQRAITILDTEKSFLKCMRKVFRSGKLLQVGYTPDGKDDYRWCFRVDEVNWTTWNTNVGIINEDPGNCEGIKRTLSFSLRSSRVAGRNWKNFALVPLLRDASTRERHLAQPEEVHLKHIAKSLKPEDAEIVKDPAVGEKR
Procedure: The binding assays are carried out in a volume of 250 ul, containing assay buffer (same as the disrupting buffer but omitting DTT and EGTA and including 0.75 mM CaCl2), 26-30 ug of membrane protein and 0.25 mg/ml bovine serum albumin. […] Tubes are kept on ice while the additions are made. The assay mixture is incubated for 10 min at 37° C.; it is then cooled on ice. 150 ul of the mixture is pipetted onto Whatman GF/C or GF/F glass fiber filters presoaked with 10 mg/ml bovine serum albumin in 20 mM Tris-Cl (pH 7.4) and filtered immediately. An aliquot of 50 ul of the mixture is removed to determine total radioactivity. The filters are washed with 100 ml of ice-cold 20 mM Tris-Cl, pH 7 4, containing 0.1 mg/ml bovine serum albumin, and the bound radioactivity is determined by scintillation counting. Non-specific binding is determined in the presence of 100-1000 nM non-radioactive RTX. Under these conditions approximately 30% of the non-specific binding is due to sticking of [^3 H]RTX to the filters. The remainder presumably reflects partitioning into the lipid phase of the membranes, as had been observed previously for typical phorbol esters (Driedger, P.E. and Blumberg, P.M., Specific binding of phorbol ester tumor promoters, Proc. Natl. Acad. Sci. U.S.A., 77 (1980) 567-571). […]
Alternatively, binding can be measured to membrane preparations from dissected dorsal horn from pig spinal cord. […]

C=C(C)[C@]12C[C@@H](C)[C@@]34O[C@](Cc5ccccc5)(O[C@@H]1[C@@H]3C=C(COC(=O)Cc1ccc(O)c(OC)c1)C[C@]1(O)C(=O)C(C)=C[C@@H]41)O2 [[^3 H]RTX, [^3 H]resiniferatoxin]
specific [^3H]RTX binding, microsomal/plasma membrane fraction over mitochondrial fraction ([1]; fixed 300 pM [^3H]RTX, preliminary): 5 fold
specific [^3H]RTX binding in the nuclear pellet ([1]; nuclear pellet): No specific [^3 H]RTX binding
specific binding [2]: no specific binding
binding in DRG from chickens [3]: not detected
detection of [^3H]RTX binding [4]: very difficult
% specific binding [5]: 90%
Kd [5]: 0.1 nM
